In ChEMBL document CHEMBL1140832, “Antimitotic quinoid triterpenes from Maytenus chuchuhuasca” (Bioorg Med Chem Lett, 2008):
Active and inactive are the calls of the source. No cut-off for these calls is given here.

Assays:
[1] = Inhibition of tubulin polymerization at 100 uM
[2] = Inhibition of tubulin polymerization
RPMI-8226 = test: Growth inhibition of human RPMI8226 cells; assay type: functional, cell-based

| SMILES | Activity [1] | IC50 [2] | IC50 (RPMI-8226) |
| --- | --- | --- | --- |
| COc1c(O)cc2c(c1C)C(=O)C=C1[C@@]2(C)CC[C@@]2(C)[C@@H]3C[C@@H](C)C(=O)C[C@]3(C)CC[C@]12C | inactive | – | – |
| CC1=C(O)C(=O)C=C2C1=CC=C1[C@@]2(C)CC[C@@]2(C)[C@@H]3C[C@@H](C)C(=O)[C@@H](O)[C@]3(C)CC[C@]12C [TINGENIN B] | – | 12 µM | 18.3 µM |
| COC(=O)[C@]1(C)CC[C@]2(C)CC[C@]3(C)C4=CC=C5C(=CC(=O)C(O)=C5C)[C@]4(C)CC[C@@]3(C)[C@@H]2C1 [PRISTIMERIN] | – | 8 µM | 16.6 µM |
| CC1=C(O)C(=O)C=C2C1=CC=C1[C@@]2(C)CC[C@@]2(C)[C@@H]3C[C@](C)(C(=O)O)CC[C@]3(C)CC[C@]12C [CELASTROL] | – | 2 µM | 3 µM |
| CC[C@]1(O)C[C@@H]2CN(CCc3c([nH]c4ccccc34)[C@@](C(=O)OC)(c3cc4c(cc3OC)N(C)[C@H]3[C@@](O)(C(=O)OC)[C@H](OC(C)=O)[C@]5(CC)C=CCN6CC[C@]43[C@@H]65)C2)C1 [VINBLASTINE] | – | 1 µM | 0.028 µM |
| CC1=C(O)C(=O)C=C2C1=CC=C1[C@@]2(C)CC[C@@]2(C)[C@@H]3C[C@@H](C)C(=O)C[C@]3(C)CC[C@]12C [TINGENONE] | – | 8 µM | 7 µM |
| COC(=O)[C@]1(C)CC[C@]2(C)CC[C@]3(C)C4=CC(=O)c5c(cc(O)c(O)c5C)[C@]4(C)CC[C@@]3(C)[C@@H]2C1 | inactive | – | – |
